From patent US20160136284A1, “GLIOMA TREATMENT” (priority 2012, published 2016)
Entries after “also recorded” stand apart in the source; their conditions may differ.

Assays:
[1] = test system: diffuse intrinsic pontine glioma; assay: CED of carboplatin in a patient with diffuse intrinsic pontine glioma
Description: MR imaging under general anaesthetic was undertaken to facilitate pre-operative stereotactic planning (field strength 3 T, Philips Achieva TX, Philips Healthcare, The Netherlands) one week prior to surgery. […] A left transfrontal trajectory for catheter implantation was planned (FIGS. 7a-d) facilitating the in-house manufacture of a bespoke catheter with a winged hub (FIG. 8a). The catheter was manufactured from polyether ether ketone (PEEK) with an outer diameter (OD) of 0.6 mm, which was bonded onto a fused silica cannula with a laser-cut tip (OD 0.23 mm). The catheter was designed to be implanted through a 1 mm OD carbothane guide-tube.
On the day of surgery the patient was anaesthetised and placed in a Leksell frame. A pre-operative CT angiogram was performed and co-registered with the post-contrast T1 weighted planning MRI scan to facilitate output of stereotactic co-ordinates to a Neuro|Mate® neurosurgical robot (Renishaw) (FIG. 8b). A 3 cm left frontal curvilinear scalp incision was made and the periosteum retracted. The robot was driven to the entry position on the skull, and using custom-made hand drills, a multi-featured burr hole made into which the guide tube hub would push fit. The dura was pierced and a 1 mm guide rod inserted to a point 24 mm proximal to the target within the tumour. The guide tube was then implanted on a 0.6 mm guide rod to maintain trajectory. The catheter was tunnelled out through a separate stab incision in the scalp and connected to a custom-made in-line gas and bacterial filter. The catheter was attached to an infusion pump (B Braun, Melsungen, Germany) and primed with artificial cerebrospinal fluid (Torbay Pharmaceutical Manufacturing Unit, Torbay, UK). The fused silica catheter was then implanted via the guide-tube with 3 mm of fused silica retained within the guide tube and 24 mm extending beyond the guide-tube tip, thus creating a “recessed-step” within the distal guide-tube (FIG. 8c). The winged hub of the catheter was turned 90° at the skull and secured with 5 mm titanium screws. […] The skin incision was closed in layers and the externalised catheter tubing secured in a loop on the scalp (FIG. 8d).
Whilst under general anaesthesia the child was transferred to the 3 T MRI scanner. The externalised catheter was attached to a 6 m extension line to allow infusions to be performed from a syringe driver (B Braun) outside of the scan room. Infusions of carboplatin diluted in artificial cerebrospinal fluid to a concentration of 0.09 mg/ml were commenced using the following infusion regime:
0.5 μl/min for 10 minutes, 1 μl/min for 5 minutes, 2.5 μl/min for 5 minutes, 5 μl/min for 5 minutes, 7.5 μl/min until completion.
Serial real-time T2-weighted MRI scans were performed in order to allow areas of hyperintense signal change to be used as a proxy measure for drug distribution. […] Once the Vi:Vd ratio was established the child was recovered from anaesthesia and monitored in a high dependency area until completion of the infusion. […] Infusions of carboplatin were performed on 3 consecutive days in order to maintain exposure to the cytotoxic chemotherapy for at least 72 hours.

[2] = test system: SNB19 and UPAB glioma cells; assay: MTT cytotoxicity assay in glioma cell lines; format: cell-based
Experimental: Cell lines were kindly provided by Geoffrey Pilkington from the Institute of Biomedical and Biomolecular Sciences at Portsmouth University, UK. The cell lines used in this study were SNB19 (P20-P45) and UPAB (P20-P45).
Briefly, SNB19 and UPAB glioma cells were plated at 1×10^4/well in a 24-well plate. Cells were treated 72 hours later with Carboplatin at the following concentrations: 0.06 mg, 0.12 mg, 0.18 mg, 0.24 mg, 0.3 mg, 0.36 mg, and 0.6 mg (TEVA, UK) for 24, 48, 72, or 96 hours. Each concentration was repeated 4 times. Carboplatin was diluted in phosphate buffered saline (PBS; Sigma Aldrich, UK) and added to 0.5 mL culture media. PBS was used as a negative control and Puromycin dihydrochloride (10 μg/mL; Sigma Aldrich, UK), which inhibits cell growth by preventing protein synthesis, was used as a positive control. Following the incubation period, culture media was changed. Then 50 μL Methylthiazolyl-tetrazolium bromide solution (MTT; Sigma Aldrich, UK; 5 mg/mL) was added to each well and further incubated for 3 hours at 37° C. in a humidified 5% CO2 atmosphere to allow MTT to form formazan crystals in metabolically active cells. Following this, media was removed, and the formazan crystals in each well were solubilized with 190 μL of isopropanol (Fisher Scientific, Loughborough, UK) acidified with hydrochloric acid (VWR, Leicestershire, UK). The cell lysate was transferred to a 96 well plate and the absorbance of each well was measured at 570 nm using a Multiskan Ascent plate reader (Thermo Electron Corporation, UK). Results are expressed as a percentage (%) of treated versus untreated cells.

[3] = single brainstem infusions, concentrations as high as 1 mg/ml; cited from earlier work
[4] = Coinfusion of carboplatin and gadolinium-DTPA into pig corona radiata (T1 MRI, LA-ICP-MS); format: in vivo; details: carboplatin 0.03 mg/ml coinfused with 0.3% gadolinium-DTPA, CED
Experimental: Carboplatin infusions were undertaken into male Large White Landrace pigs weighing 45 kg using a cannula system developed in-house. Pig anaesthesia, head immobilisation and brain imaging were achieved as we have previously described White et al (2010). Infusions of 120 μl 0.03 mg/ml carboplatin mixed with 0.3% (6 μmol/l) Gadolinium-DTPA (Magnevist: Bayer Healthcare, Germany), were undertaken bilaterally into the corona radiata using a cannula composed of a length of fused silica (outer diameter 220 μm, inner diameter 150 μm) bonded to a glass Hamilton syringe. Except for the distal 3 mm, this fused silica tube was supported along its length by a series of zirconia tubes to ensure that it could be accurately inserted to target. Infusions were performed using the following regime: 0.5 μl/min for 5 min, 1 μl/min for 5 min, 2.5 μl/min for 5 min and then 5 μl/min for 20 min. This regime was employed in an attempt to minimise the occurrence of a sudden surge in pressure at the catheter tip due to elasticity in the infusion tubing. 120 μl was infused as this is the largest volume that we have previously infused into pig white matter without leakage into the ventricular system. Following infusion completion, the cannula was left in place for 10 min prior to being withdrawn slowly by hand. CSF leakage from the burr hole and cannula track was sealed with Cerebond prior to wound closure. […]

[5] = high-dose intravenous delivery; cited from earlier work
[6] = one month after completion of infusions

For `N.N.O=C([O-])C1(C(=O)[O-])CCC1.[Pt+2]` [carboplatin], the “volume of T2 signal change on completion of final infusion” value ([1]; after 5 infusions, 0.09 and 0.18 mg/ml) was 35.1 mL, the “volume of distribution (T2-weighted MRI)” value ([1]; after infusion of 0.52 ml, 0.09 mg/ml in artificial CSF) was 2.06 mL and the “follow-up T2-weighted MR imaging” value [1, 6] was “suggestive of the early stages of tumour necrosis”. The “follow-up post-contrast T1-weighted imaging” value [1, 6] was “tumour progression in the inferior and anterior regions of the tumour”, the tolerability of infusions ([1]; patient, 0.09-0.18 mg/ml, up to 10 μl/min) was “well tolerated; also recorded: transient worsening in neurological status” and the “concentration above which increase in cell kill is negligible” value ([2]; 72 hour exposure) was 0.24 mg/mL. For the same molecule, the “concentration above which increase in cell kill is negligible” value ([2]; 96 hour exposure) was 0.18 mg/mL, the cell kill ([2]; 96 hour exposure, 0.18 mg/ml) was “greater than 90%” and the histological tissue damage [3] was “without histological evidence of tissue damage”. For the same molecule, the “distribution in pig corona radiata (LA-ICP-MS)” value [4] was “widespread carboplatin distribution” and the “peak glioma tissue concentration” value [5] was 0.013 mg/mL.
